The text below walks through data of patent US20090030039A1, “Piperidine Derivatives as Cxcr3 Receptor Antagonists” (priority 2006, published 2009).

Structures are written as SMILES.

The first test has as its target T1, human CXCR3 (Homo sapiens, UniProt P49682).
T1 construct: expressed in transfected cells; host or cells: CHO cells (membrane preparation)
T1 sequence (P49682 1-368): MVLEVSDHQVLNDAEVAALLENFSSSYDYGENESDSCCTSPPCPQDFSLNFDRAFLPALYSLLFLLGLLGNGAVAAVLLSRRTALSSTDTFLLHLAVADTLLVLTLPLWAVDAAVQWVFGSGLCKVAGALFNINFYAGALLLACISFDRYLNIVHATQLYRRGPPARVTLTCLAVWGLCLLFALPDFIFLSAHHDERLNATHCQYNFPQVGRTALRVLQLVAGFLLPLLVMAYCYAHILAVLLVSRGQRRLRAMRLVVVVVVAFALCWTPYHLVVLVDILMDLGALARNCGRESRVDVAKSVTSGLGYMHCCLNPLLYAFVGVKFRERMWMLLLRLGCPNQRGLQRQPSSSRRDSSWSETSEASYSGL
The test is described as follows: [35S]GTPγS exchange assay, CXCR3 receptor inhibition (hI-TAC-induced GTPγS-binding). The conditions noted are these: -log IC50 (molar) inhibiting 50% of specific I-TAC-induced GTPγS-binding; membranes of human CXCR3-transfected CHO cells. It counts as biochemical. On the procedure: CXCR3 Receptor Inhibition was Examined in a [^35S]GTPγS Exchange Assay
The exchange of guanosine 5′-[^35S]triphosphate was measured on membranes of human CXCR3-transfected CHO cells. [^35S]GTPγS exchange assays were performed in 96-well plates with 10 μg of membrane protein/well using basic flashplates (Perkin Elmer). Compounds were dissolved in DMSO and diluted with incubation buffer to yield required concentrations with 9% DMSO. Incubation buffer is composed of 20 mM HEPES, 100 mM NaCl, 3 μM GDP and 1 mM MgCl2, pH 7.4. […] Compound, membranes, hI-TAC (interferon-inducible T-cell alpha chemoattractant) and [^35S]GTPγS were added in a total volume of 200 μl. First, 20 μl of the appropriate compound dilution and 140 μl membranes from CXCR3-CHO cells were dissolved in membrane incubation buffer and pre-incubated for 30 minutes at 30° C. Then, 20 μl of hI-TAC dissolved at 30 nM in incubation buffer was added to the membranes and the mixture containing 1% of DMSO was incubated for another 30 minutes at 30° C. […] After 1 minute shaking and 30 minutes incubation at 30° C., flashplates were centrifuged for 5 minutes at 2500 rpm at room temperature. Flashplate bound radioactivity was determined by liquid scintillation counting. Basal GTPγS-binding was measured in 8 wells with membranes incubated in the same volume with 1% DMSO, without I-TAC. Maximal GTPγS-binding was measured in 8 wells with membranes incubated with 1% DMSO and 3 nM I-TAC. […] IC50 values were calculated using non-linear regression in Graphpad Prism.
As a reminder, the pIC50 is −log10 of the IC50, conventionally taken in molar units. Read a high pIC50 as a small IC50. In the case of `O=C1CCC(c2cccc(C(=O)O)c2)(C2CCN(Cc3ccc(Br)cc3)CC2)C(=O)N1` (centres unmarked) [Compound 23], the pIC50 was 6.2.

`NC(=O)c1cccc(C2(C3CCN(Cc4ccc(Br)cc4)CC3)CCC(=O)NC2=O)c1` (centres unmarked) [Compound 33]: the pIC50 is given as 5.5.

Regarding `O=C1CCC(c2cccc(O)c2)(C2CCN(Cc3ccc(Br)cc3)CC2)C(=O)N1` (centres unmarked) [Compound 39], the pIC50 turned out to be 6.0.

The molecule `O=C1CCC(c2cccc(C(=O)N3CCOCC3)c2)(C2CCN(Cc3ccc(Br)cc3)CC2)C(=O)N1` (centres unmarked) [Compound 37] came in with a negative logarithm of the IC50 (pIC50) of 6.1.

`O=C1CCC(c2ccccc2)(C2CCN(Cc3ccc(Cl)c(Cl)c3)CC2)C(=O)N1` (centres unmarked) [Compound 80]: the pIC50 amounted to 5.9.

For the molecule `COCCN1C(=O)CCC(c2ccccc2)(C2CCN(Cc3ccc(Br)cc3)CC2)C1=O` (centres unmarked) [Compound 129], the pIC50 came out at 5.7.

Consider `O=C1CCC(c2ccc(C(=O)O)cc2)(C2CCN(Cc3ccc(Br)cc3)CC2)C(=O)N1` (centres unmarked) [Compound 193], for which the pIC50 was 5.3.

`O=C1CCC(c2cccnc2)(C2CCN(Cc3ccc(Br)cc3)CC2)C(=O)N1` (centres unmarked) [Compound 178] displayed a pIC50 of 6.0.

The same test, now with this note: -log IC50 (molar) inhibiting 50% of specific I-TAC-induced GTPγS-binding; membranes of human CXCR3-transfected CHO cells; read-out: pIC50 (converted).
Take `O=C1CCC(c2ccc(F)cc2F)(C2CCN(Cc3ccc(Cl)c(Cl)c3)CC2)C(=O)N1` (centres unmarked) [Compound 201]: the IC50 is 398 nM.

Consider `Cc1ccc(CN2CCC(C3(c4cccc(C)c4)CCC(=O)NC3=O)CC2)cc1` (centres unmarked) [Compound 101], for which the IC50 was 2510 nM.

On to `COC(=O)CCN1C(=O)CCC(c2ccccc2)(C2CCN(Cc3ccc(Cl)cc3)CC2)C1=O` (centres unmarked) [Compound 121], for which the IC50 is 6310 nM.

Regarding `CSc1ccc(CN2CCC(C3(c4ccccc4)CCC(=O)NC3=O)CC2)cc1` (centres unmarked) [Compound 116], the IC50 was 5010 nM.

For `COc1cc(CN2CCC(C3(c4ccccc4)CCC(=O)NC3=O)CC2)ccc1F` (centres unmarked) [Compound 60], the IC50 was 3160 nM.

For `CC(c1ccc(Br)cc1)N1CCC(C2(c3cccc(C(=O)O)c3)CCC(=O)NC2=O)CC1` (centres unmarked) [Compound 165], the IC50 was 794 nM.

As for `O=C1CCC(c2cccc(Cl)c2)(C2CCN(Cc3ccc(Br)cc3F)CC2)C(=O)N1` (centres unmarked) [Compound 95], the IC50 was 1580 nM.

Take `O=C1CCC(c2ccc(F)cc2)(C2CCN(Cc3ccc(F)c(Cl)c3)CC2)CN1` (centres unmarked) [Compound 134]: the IC50 is 3980 nM.

As to `CC(c1ccc(Br)cc1)N1CCC(C2(c3cccc(Cl)c3)CCC(=O)NC2=O)CC1` (centres unmarked) [Compound 164], the IC50 is 1000 nM.

On to `Cc1cccc(C2(C3CCN(Cc4ccc(Cl)c(Cl)c4)CC3)CCC(=O)NC2=O)c1` (centres unmarked) [Compound 82], for which the IC50 is 3160 nM.

Take `CC(=O)N1CC(c2ccccc2)(C2CCN(Cc3ccc(Br)cc3)CC2)CCC1=O` (centres unmarked) [Compound 210]: the IC50 is 1260 nM.

As for `O=C1CCC(c2ccc(F)cc2)(C2CCN(Cc3ccc(Cl)cc3Cl)CC2)CN1` (centres unmarked) [Compound 138], the IC50 was 1580 nM.

Turning to `O=C1CCC(c2cccc(C(=O)O)c2)(C2CCN(Cc3ccc(Cl)c(Cl)c3)CC2)C(=O)N1` (centres unmarked) [Compound 83], the IC50 is 398 nM.

On to `O=C1CCC(c2cccc(Cl)c2)(C2CCN(Cc3ccc(F)c(F)c3F)CC2)C(=O)N1` (centres unmarked) [Compound 51], for which the IC50 was 2510 nM.

Take `O=C1CCC(c2ccc(C(=O)O)cc2)(C2CCN(Cc3ccc(Cl)cc3)CC2)C(=O)N1` (centres unmarked) [Compound 191]: the IC50 is 5010 nM.

Take `O=C1CCC(c2cccc(C(F)(F)F)c2)(C2CCN(Cc3ccc(Br)cc3F)CC2)C(=O)N1` (centres unmarked) [Compound 96]: the IC50 was 3160 nM.

As for `O=C1CCC(c2ccc(F)cc2)(C2CCN(Cc3ccc(Br)cc3F)CC2)CN1` (centres unmarked) [Compound 15], the IC50 is 398 nM.

Consider `O=C1CCC(c2cccc(Cl)c2)(C2CCN(Cc3ccc(Cl)cc3Cl)CC2)C(=O)N1` (centres unmarked) [Compound 71], for which the IC50 was 2510 nM.

Take `O=C1CCC(c2ccc(F)cc2)(C2CCN(Cc3ccc(Cl)cc3)CC2)C(=O)N1` (centres unmarked) [Compound 68]: the IC50 was 794 nM.

With `O=C1CCC(c2ccccc2)(C2CCN(Cc3ccc(F)c(F)c3)CC2)C(=O)N1` (centres unmarked) [Compound 47], the IC50 is 2000 nM.

Turning to `COc1cccc(C2(C3CCN(Cc4ccc(F)c(F)c4F)CC3)CCC(=O)NC2=O)c1` (centres unmarked) [Compound 53], the IC50 is 2000 nM.

Regarding `O=C1CCC(c2ccc(F)cc2)(C2CCN(Cc3ccc4nonc4c3)CC2)C(=O)N1` (centres unmarked) [Compound 163], the IC50 is 3980 nM.

With `O=C1CCC(c2ccc(F)cc2)(C2CCN(Cc3cc4cc(Br)ccc4o3)CC2)C(=O)N1` (centres unmarked) [Compound 161], the IC50 is 3160 nM.

For the molecule `O=C1CCC(c2ccccc2)(C2CCN(Cc3ccc(Cl)c(F)c3)CC2)C(=O)N1` (centres unmarked) [Compound 31], the IC50 was 200 nM.

`COC(=O)CCN1C(=O)CCC(c2ccccc2)(C2CCN(Cc3ccc(Br)cc3)CC2)C1=O` (centres unmarked) [Compound 130]: the IC50 is 3980 nM.

For `O=C1CCC(c2ccccc2)(C2CCN(Cc3ccc(Cl)cc3)CC2)CN1` (centres unmarked) [Compound 135], the IC50 was 1000 nM.

For `O=C1CCC(c2ccc(F)cc2)(C2CCN(Cc3ccc(OC(F)F)cc3)CC2)CN1` (centres unmarked) [Compound 147], the IC50 is 3980 nM.

Regarding `COc1ccc(C2(C3CCN(Cc4ccc(Cl)cc4)CC3)CCC(=O)NC2=O)cc1` (centres unmarked) [Compound 69], the IC50 was 3160 nM.

For the molecule `O=C1CCC(c2cccc(C(=O)O)c2)(C2CCN(Cc3cc4cc(Br)ccc4o3)CC2)C(=O)N1` (centres unmarked) [Compound 160], the IC50 was 316 nM.

For the molecule `O=C1CCC(c2ccc(F)cc2)(C2CCN(Cc3ccc(Cl)cc3)CC2)CN1` (centres unmarked) [Compound 136], the IC50 was 794 nM.

Consider `O=C1CCC(c2ccc(F)cc2)(C2CCN(Cc3ccc(Cl)c(Cl)c3)CC2)C(=O)N1` (centres unmarked) [Compound 85], for which the IC50 was 794 nM.

Regarding `O=C1CCC(c2ccccc2)(C2CCN(Cc3ccc(Cl)cc3)CC2)C(=O)N1Cc1ccc(Cl)cc1` (centres unmarked) [Compound 189], the IC50 was 2000 nM.

Take `O=C1CCC(c2ccc(F)cc2F)(C2CCN(Cc3cc4cc(Br)ccc4o3)CC2)C(=O)N1` (centres unmarked) [Compound 206]: the IC50 is 1260 nM.

Turning to `O=C1CCC(c2cccc(Cl)c2)(C2CCN(Cc3ccc(OC(F)(F)F)cc3)CC2)C(=O)N1` (centres unmarked) [Compound 114], the IC50 was 7940 nM.

Take `O=C1CCC(c2cccc(C(=O)O)c2)(C2CCN(Cc3ccc(Br)c(F)c3)CC2)C(=O)N1` (centres unmarked) [Compound 99]: the IC50 was 398 nM.

Take `COc1cccc(C2(C3CCN(Cc4ccc(Cl)cc4)CC3)CCC(=O)NC2=O)c1` (centres unmarked) [Compound 67]: the IC50 was 1000 nM.

For `COC(=O)CCN1C(=O)CCC(c2ccccc2)(C2CCN(Cc3ccc(Cl)cc3Cl)CC2)C1=O` (centres unmarked) [Compound 124], the IC50 was 1000 nM.

As for `COC(=O)c1ccc(CN2CCC(C3(c4ccccc4)CCC(=O)NC3=O)CC2)cc1` (centres unmarked) [Compound 36], the IC50 was 1260 nM.

In the case of `CC(c1ccc(Br)cc1)N1CCC(C2(c3ccc(F)cc3)CCC(=O)NC2)CC1` (centres unmarked) [Compound 144], the IC50 is 631 nM.

Consider `O=C1CCC(c2ccc(F)cc2)(C2CCN(Cc3ccc(Br)cc3F)CC2)C(=O)N1` (centres unmarked) [Compound 98], for which the IC50 was 631 nM.

As for `O=C1CCC(c2ccccc2)(C2CCN(Cc3ccc(OC(F)(F)F)cc3)CC2)C(=O)N1` (centres unmarked) [Compound 112], the IC50 is 1000 nM.

Take `COc1cc(F)ccc1CN1CCC(C2(c3ccccc3)CCC(=O)NC2=O)CC1` (centres unmarked) [Compound 46]: the IC50 was 3980 nM.

Take `O=C1CCC(c2cccc(C(=O)O)c2)(C2CCN(Cc3ccc(Br)cc3F)CC2)C(=O)N1` (centres unmarked) [Compound 97]: the IC50 is 501 nM.

For the molecule `O=C1CCC(c2ccccc2)(C2CCN(Cc3ccc(F)cc3)CC2)C(=O)N1` (centres unmarked) [Compound 44], the IC50 is 5010 nM.

On to `O=C1CCC(c2ccc(F)cc2F)(C2CCN(Cc3ccc(Cl)c(F)c3)CC2)C(=O)N1` (racemic) [Compound 202], for which the IC50 was 251 nM.

For `O=C1CCC(c2cccc(C(=O)O)c2)(C2CCN(Cc3ccc(Cl)c(F)c3)CC2)C(=O)N1` (centres unmarked) [Compound 22], the IC50 was 251 nM.

Take `O=C1CCC(c2ccc(F)cc2F)(C2CCN(Cc3ccc(Br)cc3F)CC2)C(=O)N1` (centres unmarked) [Compound 198]: the IC50 was 251 nM.

As to `O=C1CCC(c2ccccc2)(C2CCN(Cc3ccc(Cl)s3)CC2)C(=O)N1` (centres unmarked) [Compound 151], the IC50 was 3160 nM.

`O=C1CCC(c2cccc(Cl)c2)(C2CCN(Cc3ccc(Br)cc3)CC2)C(=O)N1` (centres unmarked) [Compound 89]: the IC50 is 1580 nM.

In the case of `Cc1cc(C)c(CN2CCC(C3(c4ccccc4)CCC(=O)NC3=O)CC2)c(C)c1` (centres unmarked) [Compound 157], the IC50 is 3160 nM.

On to `O=C1CCC(c2ccccc2)(C2CCN(Cc3ccc(F)cc3)CC2)C(=O)N1` (centres unmarked) [Compound 43], for which the IC50 was 3160 nM.
